Results published in article PMC8037336, “Metabolite Profiling and Characterization of LW6, a Novel HIF-1α Inhibitor, as an Antitumor Drug Candidate in Mice” (Molecules, 2021).
“And” between values parts separate entries of the source, which are not always exact repeats. Equal entries are not always repeated.

Experiment: Metabolite profiling and semi-quantitation (peak area-time AUC) of LW6 and its metabolites in mouse plasma after a single i.v. or oral dose of LW6
Assay type: in vivo, male ICR mice
Conditions: for Relative % of Parent AUC0→t (i.v.): AUC0→t relative to AUC0→t of parent after i.v. administration; for Relative % of Total Metabolite AUC0→t: relative to sum of AUC0→t of all detected metabolites; for Relative AUC of metabolite versus parent AUC (i.v.): versus AUC0→t of LW6 administered intravenously; for Relative % of Parent AUC0→t (p.o.): AUC0→t relative to AUC0→t of parent after i.v. administration (5 mg/kg); for Average AUC0→t (Peak Intensity, Cps) / Average AUC0→t (Peak inTensity, cps): mouse plasma, n = 3, 0-24 h, LC-MS/MS peak intensity-time curve; for Average AUC0→t (Peak Intensity, Cps): LW6 5 mg/kg i.v.; for Average AUC0→t (Peak inTensity, cps): LW6 5 mg/kg p.o.; for Detection of metabolite in mouse plasma: LW6 5 mg/kg i.v. or p.o., pMRM-IDA-EPI, S/N > 3
Procedure: To determine the in vivo metabolism of LW6, male ICR mice were administered a single intravenous (i.v., 5 mg/kg) or oral dose (p.o., 5 mg/kg) of LW6. Serial blood samples (Section 4.2) were collected and metabolite identification was performed using a pMRM-IDA-EPI scan method in negative ion mode on a QTRAP.
Animal experiments were approved by the Institutional Animal Care and Use Committee of the Korea Research Institute of Bioscience and Biotechnology (Chungbuk, Korea; KRIBB-AEC-15005, 9 January 2015) and performed in compliance with the National Institutes of Health Guidelines for the care and use of laboratory animals and Korean national laws for ethical conduct in the care and use of animals and the rules of Good Laboratory Practice. Six specific pathogen-free (SPF) male ICR mice (8 weeks, 31.5–40.1 g) were purchased from Koatech Co. (Pyeongtaek, Kyonggi, Korea) and maintained in an SPF environment at 22 ± 2 °C with a 12 h light/dark cycle and relative humidity of 50 ± 10%. Food (Teklad Global rodent diet 2018S, ENVIGO, Indianapolis, IN, USA) and water were provided ad libitum, unless noted otherwise. Animals were acclimated to the testing facility for 1 week before being used in the study. The animal group for oral dosing was fasted overnight before the study and fed again 4 h after dosing. Mice were administered a single dose of the test substance intravenously via tail vein injection (n = 3, 5 mg/kg) or orally by disposable syringe with an oral zonde (n = 3, 5 mg/kg). Dosing solutions were prepared in dimethylacetamide/Cremophor EL/20% v/v (2-hydroxypropyl)-β-cyclodextrin in de-ionized water (1/1/3 v/v/v; i.v. or p.o. for LW6) and administered at a dose volume of 5 mL/kg for both i.v. and p.o. Peng et al. method was used for serial blood sampling in mice. Briefly, blood samples (~50 µL each) were collected via the saphenous vein of free alive mice at the time points including 0, 0.25, 0.5, 0.75, 1, 2, 4, 6, 8, and 24 h after oral administration or 0, 0.083, 0.167, 0.25, 0.5, 1, 2, 4, 6, 8, and 24 h after intravenous administration. These samples were collected into Microvette® capillary tubes at predetermined time points. The blood samples were centrifuged under refrigeration at 12,000× g for 3 min and then stored frozen at −20 °C until analysis.
Plasma samples were prepared for analysis by the protein precipitation method. A simple protein precipitation is to remove proteins in plasma samples with organic solvents. Briefly, 15 µL of each plasma sample was transferred to a PCR tube (Axygen, Union City, CA, USA). Four volumes of acetonitrile containing the analytical internal standard, 4-methylumbelliferone, were added, and the resulting mixture was vortexed for 10 min on a multi-tube vortexer (VWR International, Radnor, PA, USA). The samples were sonicated for 30 min at room temperature. The tubes were centrifuged at 12,000× g for 10 min, and the supernatant was analyzed for the test substance. Sample analysis was performed with a 3200 Q TRAP LC/MS/MS system (Applied Biosystems, Foster City, CA, USA) in negative MRM mode. The analytical methods are described in the following sections.
The LC-MS/MS system consisted of an Agilent 1100 series HPLC system (Agilent Technologies, Santa Clara, CA, USA) equipped with an API 3200 QTRAP hybrid triple quadrupole-linear ion trap mass spectrometer with a Turbo V^TM ion spray. All samples were analyzed on an Acquisition mode and data were processed using Analyst® software (version 1.4.2, Applied Biosystems, Foster City, CA, USA). The sample injection volume was 10 µL, and separation was performed using an Atlantis dC18 column (50 × 2.1 mm i.d., 3 µm, Waters, Milford, MA, USA) with a SecurityGuard^TM C18 guard column (2.0 × 4.0 mm i.d., Phenomenex, Torrance, CA, USA) maintained at room temperature. […]

Row | Relative % of Parent AUC0→t (i.v.) (after LW6 5 mg/kg i.v.) [%] | Relative % of Total Metabolite AUC0→t (after LW6 5 mg/kg i.v.) | Relative % of Total Metabolite AUC0→t (after LW6 5 mg/kg i.v., listed as APA (M7)) [%] | Relative AUC of metabolite versus parent AUC (i.v.) (after LW6 5 mg/kg i.v.) | Relative % of Parent AUC0→t (p.o.) (after LW6 5 mg/kg p.o.) [%] | Relative % of Total Metabolite AUC0→t (after LW6 5 mg/kg p.o.) | Relative % of Total Metabolite AUC0→t (after LW6 5 mg/kg p.o., listed as APA (M7)) [%] | Relative AUC of metabolite versus parent AUC (i.v.) (after LW6 5 mg/kg p.o.) [fold] | Average AUC0→t (Peak Intensity, Cps) | Average AUC0→t (Peak inTensity, cps) | Relative % of Parent AUC0→t (i.v.) (after LW6 5 mg/kg i.v., 5 mg/kg) [%] | Relative % of Parent AUC0→t (p.o.) (after LW6 5 mg/kg p.o., 5 mg/kg) | SMILES | Detection of metabolite in mouse plasma
1 | 1877.92 | 92.1% and 92% | 92.09 | approximately 19 fold | 1686.37 | 93.3% and 93% | 93.32 | ~17 | 19,697,150 cps | 17,688,080 cps |  |  | O=C(O)COc1ccc(C23CC4CC(CC(C4)C2)C3)cc1 [APA, 2-(4-((3r,5r,7r)-adamantan-1-yl)phenoxy)acetic acid] | 
2 |  |  |  |  |  |  |  |  | 1,048,883 cps | 28,735 cps | 100 | 2.7% and 2.74% | COC(=O)c1ccc(O)c(NC(=O)COc2ccc(C34CC5CC(CC(C5)C3)C4)cc2)c1 [LW6] | 
3 | 0.73 | 0.04% |  |  |  |  |  |  | 7672 cps |  |  |  | O=C(COc1ccc(C23CC4CC(CC(C4)C2)C3)cc1)Nc1cc(C(=O)O)ccc1O [M9] | only detected in plasma samples obtained from intravenous dosing
4 | 2.99 | 0.15% |  |  |  |  |  |  | 31,345 cps |  |  |  | Oc1ccc(C23CC4CC(CC(C4)C2)C3)cc1 [M12] | only detected in plasma samples obtained from intravenous dosing
